This passage reports IC50 results from patent publication US11021481B2, “Substituted isoindolin-1-ones and 2,3-dihydro-1h-pyrrolo[3,4-c]pyridin-1-ones as HPK1 antagonists” (Nimbus Saturn, Inc., priority 2019, dated 2021).

The target in this test is HPK1 (Homo sapiens (Human), UniProt Q92918). Briefly: HPK1 biochemical enzyme assay (microfluidic mobility shift assay). As to conditions: 1.5 nM HPK1, ATP 1 mM final, 30 min preincubation, 60 min at RT, Caliper EZ Reader; read-out: HPK1 1000UMATP caliper IC50. The procedure: HPK1 biochemical enzyme assay: HPK1 enzyme inhibition was measured using a microfluidic mobility shift assay. […] Test compounds were titrated in ten point curves (top final assay concentration 3 μM), and preincubated with enzyme/substrate mix for 30 min prior to initiation of the reaction by addition of ATP (1 mM final concentration) and substrate (1 μM final concentration; Carna Biosciences) diluted in assay buffer supplemented by MgCl2 (final assay concentration of 5 mM). Following 60 min incubation at RT, the reaction was terminated by addition of 60 µl/well termination buffer (Carna Biosciences) and signal determination using aCaliper EZ Reader (Perkin Elmer, UK).
Sequence of HPK1 (Q92918 whole entry): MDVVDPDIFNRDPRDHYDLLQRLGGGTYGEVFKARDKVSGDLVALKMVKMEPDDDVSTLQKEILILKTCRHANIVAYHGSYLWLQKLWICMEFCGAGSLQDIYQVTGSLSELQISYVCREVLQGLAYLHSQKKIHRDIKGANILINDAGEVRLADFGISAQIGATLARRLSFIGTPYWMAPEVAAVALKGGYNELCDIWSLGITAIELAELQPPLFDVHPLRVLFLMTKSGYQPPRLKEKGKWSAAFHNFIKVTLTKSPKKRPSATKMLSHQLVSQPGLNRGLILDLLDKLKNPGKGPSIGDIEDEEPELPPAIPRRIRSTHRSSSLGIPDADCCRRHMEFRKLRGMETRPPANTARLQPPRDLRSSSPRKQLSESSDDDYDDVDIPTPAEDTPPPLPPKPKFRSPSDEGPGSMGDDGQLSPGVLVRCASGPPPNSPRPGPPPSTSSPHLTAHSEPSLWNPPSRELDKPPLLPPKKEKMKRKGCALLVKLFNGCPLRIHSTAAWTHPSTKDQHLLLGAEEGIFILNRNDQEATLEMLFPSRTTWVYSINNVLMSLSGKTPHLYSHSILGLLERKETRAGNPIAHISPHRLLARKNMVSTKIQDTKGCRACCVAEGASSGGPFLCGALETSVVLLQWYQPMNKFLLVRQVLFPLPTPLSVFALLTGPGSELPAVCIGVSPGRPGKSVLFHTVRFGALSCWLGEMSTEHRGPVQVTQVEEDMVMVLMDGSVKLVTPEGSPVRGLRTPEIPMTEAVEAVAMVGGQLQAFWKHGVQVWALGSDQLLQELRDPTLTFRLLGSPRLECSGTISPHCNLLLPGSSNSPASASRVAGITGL
The compound numbers correspond to the compound numbers in Table 1.
One may read the IC50 as the point on the concentration scale where inhibition reaches its midpoint. In the case of “4-(1-methyl- 1H-indol-4- yl)-7-((5- (piperazin-1- yl)pyridin-2- yl)amino)-2,3- dihydro-1H- pyrrolo[3,4- c]pyridin-1-one [I-266]”, the IC50 was < 100 nM. The value for “4-(6- methylpyrazol o[1,5-a]pyridin-3- yl)-7-[[5- (morpholino- methyl)-2- pyridyl]amino] isoindolin-1-one [I-469]” was < 100 nM. Regarding “4-(7- fluoroimidazo [1,2-a]pyridin- 3-yl)-7-[[5-(4- morpholino-1- piperidyl)-2- pyridyl]amino] isoindolin-1- one [I-488]”, the IC50 was < 100 nM.

For the molecule “4-imidazo[1,2- a]pyridin-3-yl- 7-[(5-morpholino-2- pyridyl)-amino]-2,3- dihydropyrrolo [3,4-c]pyridin-1- one [I-198]”, the IC50 is 100 to 1000 nM. Under “7-[[5-(4-hydroxy-1- piperidyl)-2-pyridyl] amino]-4-imidazo[1,2- a]pyridin-3-yl- isoindolin-1-one [I-125]” stands < 100 nM; under “7-[[5-[(2R)-2- (1-hydroxy-1- methylethyl)morpholin- 4-yl]-2- pyridyl]amino]- 4-imidazo[1,2- a]pyrazin-3-yl- isoindolin-1-one [I-486]”, < 100 nM; under “7-[[6- [(dimethylamino)- methyl]-5- tetrahydrofuran- 3-yl-2- pyridyl]amino]- 4-(7- methylimidazo [1,2-a]pyrimidin-3- yl)isoindolin- 1-one [I-846]”, < 100 nM. The value for `Cn1ccc2c(-c3ccc(Nc4ccc(N5CCC[C@H](C(C)(C)O)C5)cn4)c4c3CNC4=O)ccnc21` (single isomer, unassigned) [I-280] was < 100 nM; that for `Cn1ccc2c(-c3ccc(Nc4ccc(N5CCC[C@@H](C(C)(C)O)C5)cn4)c4c3CNC4=O)ccnc21` (single isomer, unassigned) [I-281] was < 100 nM; that for `C[C@@H]1CCn2c(-c3ccc(Nc4ccc(N5CCC(O)CC5)cn4)c4c3CNC4=O)cnc2C1` (single isomer, unassigned) [I-302] was 100 to 1000 nM. On to `Cn1ccc2c(-c3ccc(-n4ccc(N5CCC[C@@](C)(O)C5)n4)c4c3CNC4=O)ccnc21` (single isomer, unassigned) [I-305], for which the IC50 was > 1000 nM. Under `Cn1ccc2c(-c3ccc(-n4ccc(N5CCC[C@](C)(O)C5)n4)c4c3CNC4=O)ccnc21` (single isomer, unassigned) [I-306] stands > 1000 nM; under `C[C@@H](O)[C@H]1CN(c2ccc(Nc3ccc(-c4cnc5cc(F)ccn45)c4c3C(=O)NC4)nc2)CCO1` (single isomer, unassigned) [I-619], < 100 nM; under `C[C@H](O)[C@@H]1CN(c2ccc(Nc3ccc(-c4cnc5cc(F)ccn45)c4c3C(=O)NC4)nc2)CCO1` (single isomer, unassigned) [I-620], < 100 nM. Regarding `C[C@H](c1ccc(Nc2ccc(-c3cnc4cc(F)ccn34)c3c2C(=O)NC3)nc1)N1CCOCC1` (single isomer, unassigned) [I-639], the IC50 is < 100 nM. Under `C[C@@H](c1ccc(Nc2ccc(-c3cnc4cc(F)ccn34)c3c2C(=O)NC3)nc1)N1CCOCC1` (single isomer, unassigned) [I-640] stands < 100 nM; under `Cn1ccc2c(-c3ncc(Nc4cncc(N5CC[C@H]6CNC[C@H]65)n4)c4c3CNC4=O)ccnc21` (single isomer, unassigned) [I-660], < 100 nM. The value for `Cn1ccc2c(-c3ncc(Nc4cncc(N5CC[C@@H]6CNC[C@@H]65)n4)c4c3CNC4=O)ccnc21` (single isomer, unassigned) [I-661] was 100 to 1000 nM; that for `O=C1NCc2c(-c3cnc4cc(F)ccn34)ccc(Nc3ccc(N4CCO[C@H](C5(O)CC5)C4)cn3)c21` (single isomer, unassigned) [I-662] was < 100 nM. `O=C1NCc2c(-c3cnc4cc(F)ccn34)ccc(Nc3ccc(N4CCO[C@@H](C5(O)CC5)C4)cn3)c21` (single isomer, unassigned) [I-663]: the IC50 is < 100 nM. Turning to `CC(C)(N)[C@@H]1CN(c2ccc(Nc3ccc(-c4cnc5cc(F)ccn45)c4c3C(=O)NC4)nc2)CCO1` (single isomer, unassigned) [I-670], the IC50 is < 100 nM. Regarding `Cn1ccc2c(-c3ncc(Nc4ccc(N5CCC[C@@](O)(CN6CCOCC6)C5)cn4)c4c3CNC4=O)ccnc21` (single isomer, unassigned) [I-673], the IC50 is < 100 nM. The value for `Cn1ccc2c(-c3ncc(Nc4ccc(N5CCC[C@](O)(CN6CCOCC6)C5)cn4)c4c3CNC4=O)ccnc21` (single isomer, unassigned) [I-674] was < 100 nM; that for `CNC(C)(C)[C@@H]1CN(c2ccc(Nc3ccc(-c4cnc5cc(F)ccn45)c4c3C(=O)NC4)nc2)CCO1` (single isomer, unassigned) [I-675] was < 100 nM; that for `CNC(C)(C)[C@H]1CN(c2ccc(Nc3ccc(-c4cnc5cc(F)ccn45)c4c3C(=O)NC4)nc2)CCO1` (single isomer, unassigned) [I-676] was < 100 nM. Turning to `O=C1NCc2c(-c3cnc4cc(F)ccn34)ccc(Nc3ccc([C@H]4CCOC4)c(CNCC(F)F)n3)c21` (single isomer, unassigned) [I-739], the IC50 is < 100 nM. Under `O=C1NCc2c(-c3cnc4cc(F)ccn34)ccc(Nc3ccc([C@@H]4CCOC4)c(CNCC(F)F)n3)c21` (single isomer, unassigned) [I-740] stands < 100 nM; under `CN(Cc1nc(Nc2ccc(-c3cnc4cc(F)ccn34)c3c2C(=O)NC3)ccc1[C@H]1CCOC1)CC(F)F` (single isomer, unassigned) [I-748], < 100 nM. Under `CN(Cc1nc(Nc2ccc(-c3cnc4cc(F)ccn34)c3c2C(=O)NC3)ccc1[C@@H]1CCOC1)CC(F)F` (single isomer, unassigned) [I-749] stands < 100 nM; under `CNCc1nc(Nc2cnc(-c3ccnc4c3ccn4C)c3c2C(=O)NC3)ccc1[C@@H]1CCOC1` (single isomer, unassigned) [I-813], < 100 nM.

On to `CNCc1nc(Nc2cnc(-c3ccnc4c3ccn4C)c3c2C(=O)NC3)ccc1[C@H]1CCOC1` (single isomer, unassigned) [I-814], for which the IC50 is < 100 nM. The value for `C[C@@H](c1nc(Nc2ccc(-c3cnc4cc(F)ccn34)c3c2C(=O)NC3)ccc1[C@H]1CCOC1)N(C)C` (single isomer, unassigned) [I-818] was 100 to 1000 nM.

Turning to `CN(C)Cc1nc(Nc2ccc(-c3cnc4cc(F)ccn34)c3c2C(=O)NC3)ccc1N1CCOC[C@H](O)C1` (single isomer, unassigned) [I-819], the IC50 was < 100 nM. With `CN(C)Cc1nc(Nc2ccc(-c3cnc4cc(F)ccn34)c3c2C(=O)NC3)ccc1N1CCOC[C@@H](O)C1` (single isomer, unassigned) [I-820], the half-maximal inhibitory concentration (IC50) was < 100 nM. The value for `C[C@@H](c1nc(Nc2ccc(-c3cnc4cc(F)ccn34)c3c2C(=O)NC3)ccc1[C@H]1CCOC1)N(C)C` (single isomer, unassigned) [I-822] was < 100 nM. The value for `CC1COc2c(-c3ccc(Nc4ccc(N5CCN(C)CC5)cn4)c4c3CNC4=O)cnn2C1` (stereo in doubt) [I-259, (R)-4-(6-methyl-6,7-dihydro-5H-pyrazolo[5,1-b][1,3]oxazin-3-yl)-7-((5-(4-methylpiperazin-1-yl)pyridin-2-yl)amino)isoin-dolin-1-one] was 100 to 1000 nM; that for `COCC1CN(c2ccc(Nc3ccc(-c4cnc5cnccn45)c4c3C(=O)NC4)nc2)CCO1` (stereo in doubt) [I-333, (S)-4-(imidazo[1,2-a]pyrazin-3-yl)-7-((5-(2-(methoxymeth-yl)morpholino)-pyridin-2-yl)amino)isoin-dolin-1-one] was < 100 nM; that for `COCC1CN(c2ccc(Nc3ccc(-c4cnc5cnccn45)c4c3C(=O)NC4)nc2)CCO1` (stereo in doubt) [I-334, (R)-4-(imidazo[1,2-a]pyrazin-3-yl)-7-((5-(2-(methoxymeth-yl)morpholino)-pyridin-2-yl)amino)isoin-dolin-1-one] was < 100 nM.

As for `O=C1NCc2c(-c3cnc4cc(F)ccn34)ccc(Nc3cccc(O[C@@H]4CCC[C@@H]4O)n3)c21` (stereo in doubt) [I-353, 4-(7-fluoroimidazo [1,2-a]pyridin-3-yl)-7-((6-(((1S,2R)-2-hydroxycyclo-pentyl)oxy)py-ridin-2-yl)amino) isoin-dolin-1-one], the IC50 lay within 100 to 1000 nM. For the molecule `O=C1NCc2c(-c3cnc4cc(F)ccn34)ccc(Nc3cccc(O[C@H]4CCC[C@H]4O)n3)c21` (stereo in doubt) [I-354, 4-(7-fluoroimidazo [1,2-a]pyridin-3-yl)-7-((6-(((lR,2S)-2-hydroxycyclopentyl)oxy)pyri-din-2-yl)amino)isoin-dolin-1-one], the IC50 is > 1000 nM. With `C[C@H](O)[C@H]1CCCN(c2ccc(Nc3ccc(-c4cnc5cc(F)ccn45)c4c3C(=O)NC4)nc2)C1` (stereo in doubt) [I-356, 4-(7-fluoroimidazo [1,2-a]pyridin-3-yl)-7-((5-((R)-3-((R)-1-hydroxyethyl)piperidin-1-yl)pyridin-2-yl)amino)isoin-dolin-1-one], the IC50 is < 100 nM. The value for `C[C@@H](O)[C@@H]1CCCN(c2ccc(Nc3ccc(-c4cnc5cc(F)ccn45)c4c3C(=O)NC4)nc2)C1` (stereo in doubt) [I-357, 4-(7-fluoroimidazo [1,2-a]pyridin-3-yl)-7-((5-((S)-3-((S)-1-hydroxyethyl)piperidin-1-yl)pyridin-2-yl)amino)isoin-dolin-1-one] was < 100 nM.
